According to the supplement of paper PMC8612539:
In brackets after ≈: the same amount, converted by molar mass.

Test system: Pasteurella multocida
Assay: minimum inhibitory concentration (MIC)
Experimental: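 Broth microdilution MIC (Sensititre BOPO7F bovine plate, CLSI methods) of 19 antimicrobials against field isolates of P. multocida, M. haemolytica, H. somni (deep nasopharyngeal swabs) and E. coli, Enterococcus spp. (rectal swabs) from weaned dairy heifers. Incubation 16-24 h at 35 C. MIC is the lowest concentration preventing visible growth. Values with <= or > lie at the tested range limits. Trimethoprim-sulfamethoxazole is given as the trimethoprim component of a 1:19 mixture.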

CC1(C)S[C@@H]2[C@H](NC(=O)Cc3ccccc3)C(=O)N2[C@H]1C(=O)O [Penicillin]
Conditions	minimum inhibitory concentration [µg/mL]
isolate (source animal id): 10	0.25 (≈ 0.748 µM)
isolate (source animal id): 11	0.25 (≈ 0.748 µM)
isolate (source animal id): 12	0.25 (≈ 0.748 µM)
isolate (source animal id): 19	0.25 (≈ 0.748 µM)
isolate (source animal id): 23	≤ 0.12
isolate (source animal id): 26	0.25 (≈ 0.748 µM)
isolate (source animal id): 98	≤ 0.12
isolate (source animal id): 104	≤ 0.12
isolate (source animal id): 115	≤ 0.12
isolate (source animal id): 117	0.25 (≈ 0.748 µM)
isolate (source animal id): 118	≤ 0.12
isolate (source animal id): 121	0.25 (≈ 0.748 µM)
isolate (source animal id): 124	0.25 (≈ 0.748 µM)
isolate (source animal id): 125	0.25 (≈ 0.748 µM)
isolate (source animal id): 128	≤ 0.12
isolate (source animal id): 131	0.25 (≈ 0.748 µM)
isolate (source animal id): 135	0.25 (≈ 0.748 µM)
isolate (source animal id): 136	0.25 (≈ 0.748 µM)
isolate (source animal id): 140	0.25 (≈ 0.748 µM)
isolate (source animal id): 144	≤ 0.12
isolate (source animal id): 146	≤ 0.12
isolate (source animal id): 150	≤ 0.12
isolate (source animal id): 151	≤ 0.12
isolate (source animal id): 153	≤ 0.12
isolate (source animal id): 155	0.25 (≈ 0.748 µM)
isolate (source animal id): 157	≤ 0.12
isolate (source animal id): 160	≤ 0.12
isolate (source animal id): 164	≤ 0.12
isolate (source animal id): 165	≤ 0.12
isolate (source animal id): 167	≤ 0.12
isolate (source animal id): 168	0.25 (≈ 0.748 µM)
isolate (source animal id): 169	≤ 0.12
isolate (source animal id): 170	> 8
isolate (source animal id): 171	≤ 0.12
isolate (source animal id): 172	≤ 0.12
isolate (source animal id): 173	0.25 (≈ 0.748 µM)
isolate (source animal id): 174	≤ 0.12
isolate (source animal id): 175	≤ 0.12
isolate (source animal id): 176	≤ 0.12
isolate (source animal id): 177	≤ 0.12
isolate (source animal id): 178	≤ 0.12
isolate (source animal id): 179	≤ 0.12
isolate (source animal id): 182	≤ 0.12
isolate (source animal id): 192	≤ 0.12
isolate (source animal id): 193	≤ 0.12
isolate (source animal id): 195	≤ 0.12
isolate (source animal id): 196	≤ 0.12
isolate (source animal id): 197	≤ 0.12
isolate (source animal id): 198	0.25 (≈ 0.748 µM)
isolate (source animal id): 199	≤ 0.12
isolate (source animal id): 200	≤ 0.12
isolate (source animal id): 201	≤ 0.12
isolate (source animal id): 203	≤ 0.12
isolate (source animal id): 204	≤ 0.12
isolate (source animal id): 205	0.25 (≈ 0.748 µM)
isolate (source animal id): 206	≤ 0.12
isolate (source animal id): 207	≤ 0.12
isolate (source animal id): 208	≤ 0.12
isolate (source animal id): 209	≤ 0.12
isolate (source animal id): 210	0.25 (≈ 0.748 µM)
isolate (source animal id): 213	≤ 0.12
isolate (source animal id): 216	≤ 0.12
isolate (source animal id): 223	0.25 (≈ 0.748 µM)
isolate (source animal id): 227	≤ 0.12
isolate (source animal id): 229	≤ 0.12
isolate (source animal id): 233	≤ 0.12
isolate (source animal id): 234	≤ 0.12
isolate (source animal id): 237	≤ 0.12
isolate (source animal id): 241	≤ 0.12
isolate (source animal id): 245	≤ 0.12
isolate (source animal id): 247	≤ 0.12
isolate (source animal id): 250	≤ 0.12
isolate (source animal id): 254	0.25 (≈ 0.748 µM)
isolate (source animal id): 255	≤ 0.12
isolate (source animal id): 258	≤ 0.12
isolate (source animal id): 261	≤ 0.12
isolate (source animal id): 262	≤ 0.12
isolate (source animal id): 269	≤ 0.12
isolate (source animal id): 270	≤ 0.12
isolate (source animal id): 274	≤ 0.12
isolate (source animal id): 275	0.25 (≈ 0.748 µM)
isolate (source animal id): 276	0.25 (≈ 0.748 µM)
isolate (source animal id): 277	≤ 0.12
isolate (source animal id): 278	≤ 0.12
isolate (source animal id): 279	0.25 (≈ 0.748 µM)
isolate (source animal id): 280	0.25 (≈ 0.748 µM)
isolate (source animal id): 284	0.25 (≈ 0.748 µM)
isolate (source animal id): 285	0.25 (≈ 0.748 µM)
isolate (source animal id): 287	0.25 (≈ 0.748 µM)
isolate (source animal id): 290	0.25 (≈ 0.748 µM)
isolate (source animal id): 294	0.25 (≈ 0.748 µM)
isolate (source animal id): 295	0.25 (≈ 0.748 µM)
isolate (source animal id): 296	≤ 0.12
isolate (source animal id): 307	0.25 (≈ 0.748 µM)
isolate (source animal id): 310	0.25 (≈ 0.748 µM)
isolate (source animal id): 311	0.25 (≈ 0.748 µM)
isolate (source animal id): 312	≤ 0.12
isolate (source animal id): 313	0.25 (≈ 0.748 µM)
isolate (source animal id): 315	0.25 (≈ 0.748 µM)
isolate (source animal id): 316	0.25 (≈ 0.748 µM)
